Calls of active or inactive are those of the source. The rule behind the calls is not given here.
Tested on: U373 MG
Assay: Inhibition of AAPH-induced oxidative stress in human U373MG cells assessed as peroxy radical scavenging activity at 8 uM by ORAC assay
Format: functional, cell-based
Conditions: U-373MG ATCC

`Cc1c(C)c2c(c(C)c1O)CCC(C)(C(=O)O)O2` (stereo unspecified) was tested, and the Activity was “Active”.
